Results: US20230373972A1, “PIPERAZINE DERIVATIVE, PREPARATION METHOD THEREFOR AND USE THEREOF” (Zhejiang Hisun Pharmaceutical Co., Ltd., priority 2020, published 2023)

Assays:
[1] = biological target: T1, Native human Factor XIa protease (Homo sapiens, UniProt P03951); assay: Inhibition of activity of Factor XIa protease (chromogenic substrate S-2366); type: biochemical; conditions: S-2366 1 mM, 37° C. 10 minutes, absorption at 405 nm
T1 construct: The Native human Factor XIa protease was purchased from Abcam; purchased Abcam ab62411
T1 sequence (P03951 388-625 limits assumed): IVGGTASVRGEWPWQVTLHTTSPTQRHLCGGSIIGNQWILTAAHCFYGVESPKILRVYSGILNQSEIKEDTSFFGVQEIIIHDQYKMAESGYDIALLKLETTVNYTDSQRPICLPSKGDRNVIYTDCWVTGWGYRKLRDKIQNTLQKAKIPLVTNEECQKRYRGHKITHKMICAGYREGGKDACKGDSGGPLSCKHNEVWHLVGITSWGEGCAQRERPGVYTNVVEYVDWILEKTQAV
T1 sequence (P03951 19-387 partner limits assumed): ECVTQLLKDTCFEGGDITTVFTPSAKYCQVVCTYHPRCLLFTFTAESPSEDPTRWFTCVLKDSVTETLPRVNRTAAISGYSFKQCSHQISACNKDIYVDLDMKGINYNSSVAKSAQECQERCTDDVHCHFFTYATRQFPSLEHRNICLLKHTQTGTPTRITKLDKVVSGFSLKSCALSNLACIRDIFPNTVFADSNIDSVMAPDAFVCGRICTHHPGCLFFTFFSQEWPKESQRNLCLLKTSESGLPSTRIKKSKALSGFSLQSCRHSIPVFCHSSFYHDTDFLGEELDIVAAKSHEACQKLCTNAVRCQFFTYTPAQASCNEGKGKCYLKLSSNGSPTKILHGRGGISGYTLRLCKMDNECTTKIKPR
Method in brief: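 Native human Factor XIa (final […]) in 100 mM Tris-HCl, 200 mM NaCl, 0.02% Tween 20, pH 7.4, preincubated with compound 5 min on ice; 1 mM S-2366 added, 10 min at 37° C. Absorbance at 405 nm versus 0.1% DMSO control; IC50 by nonlinear regression, compound 10,000 nM to […] final.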

[2] = Pharmacokinetics in cynomolgus macaque; type: in vivo; conditions: male, cynomolgus monkey, plasma, po, intragastric administration 15 mg/kg
Description: Taking a cynomolgus macaque as a tested animal, the cynomolgus macaque was administrated with the compound in Example 96 of the present invention by intragastric administration, and drug concentrations in plasma at different times were determined by a LC/MS/MS method to study pharmacokinetic characteristics of the compound of the present invention in the cynomolgus macaque.
Cynomolgus macaque, male, 4.6 kg to 5.7 kg, adult, purchased from Guangxi Fangcheng Gang Spring Biological Technology Development Corporation Ltd.
Preparation of drug administrated by intragastric administration: a proper amount of compound to be tested was added to a proper amount of DMAC: (30% Kolliphor HS 15): Saline=5%: 10%; 85% (v/v/v), and shaken in a vortex manner, so as to prepare a final solution with a concentration of 3 mg/mL.
Cynomolgus macaques were organized into one group, which was an intragastric administration group (3 cynomolgus macaques in single group).
Intragastric administration group: the drug was administrated by intragastric administration (according to a dosage of 15 mg/kg and a volume of 5 ml/kg) after fasting overnight, and food was taken 4 hours after administration.
Intragastric administration group: about 500 μL of blood was collected into an EDTA-K2 anticoagulant tube through a cephalic vein and a saphenous vein 0.25 hour, 0.5 hour, 1 hour, 2 hours, 4 hours, 8 hours and 24 hours after administration.
The blood sample was placed on wet ice first, and plasma was centrifugally separated within 15 minutes after sampling (centrifugation conditions: 2,000 g, 4° C., 5 minutes). The collected upper plasma was stored at −70° C. before analysis.
Contents of the compound to be tested in cynomolgus macaque plasma after intragastric administration were determined by LC-MS/MS.

[3] = Pharmacokinetics in SD rat; type: in vivo; conditions: male, plasma; for AUC(0-t): read-out: Curve area AUC0-t; for half-life: read-out: Half-life period T1/2(h) (converted)
Description: Taking a SD rat as a test animal, the SD rat was administrated with the compound of the present invention by intravenous injection and/or intragastric administration, and drug concentrations in plasma at different times were determined by a IC/MS/MS method to study pharmacokinetic characteristics of the compound of the present invention in the SD rat.
SD rats, male, 195 g to 235 g, 6 weeks old to 8 weeks old, purchased from Shanghai JieSiJie Laboratory Animal Co., Ltd.
Preparation of drug administrated by intravenous injection: a proper amount of compound to be tested was added to a proper amount of DMAC; (30% Soltol HS 15): Saline=10%: 10%: 80% (v/v/v), and shaken in a vortex manner, so as to prepare a final solution with a concentration of 0.5 mg/mL.
Preparation of drug administrated by intragastric administration: a proper amount of compound to be tested was added to a proper amount of DMAC: (30% Soltol HS 15): Saline=10%: 10%: 80% (v/v/v), and shaken in a vortex manner, so as to prepare a final solution with a concentration of 1 mg/mL.
SD rats were divided into an intravenous injection group of the compound to be tested (3 rats/group) and an intragastric administration group (3 rats/group) of the compound to be tested.
Intravenous injection group: the drug was administrated by dorsalis pedis vein injection (according to a dosage of 1 mg/kg and a volume of 2 mL/kg) without fasting.
Intragastric administration group: the drug was administrated by intragastric administration (according to a dosage of 10 mg/kg and a volume of 10 mL/kg) after fasting overnight, and food was taken 4 hours after administration.
Intravenous injection group: about 150 μL of blood was collected into an EDTA-K2 anticoagulant tube through a jugular vein 0.083 hour, 0.25 hour, 0.5 hour, 1 hour, 2 hours, 4 hours, 8 hours and 24 hours after administration.
Intragastric administration group; about 150 μL of blood was collected into an EDTA-K2 anticoagulant tube through a jugular vein 0.25 how, 0.5 hour, 1 hour, 2 hours, 4 hours, 8 hours and 24 hours after administration.
The blood sample was stored in wet ice first, and plasma was centrifugally separated within 15 minutes after sampling (centrifugation conditions: 2,000 g, 4° C., 5 minutes). The collected upper plasma was stored at −70° C. before analysis.
Contents of the compound to be tested in rat plasma after intravenous injection and intragastric administration were determined by LC-MS/MS.

[4] = iv, injection administration 1 mg/kg
[5] = po, intragastric administration 10 mg/kg

IC50 [1]: 42.8 nM
Cmax ([2]; read-out: Blood concentration Cmax): 834 ± 482 ng/mL
AUC(0-t) ([2]; read-out: Curve area AUC0-t): 4210 ± 1240 ng·h/mL
half-life ([2]; read-out: Half-life period T1/2(h) (converted)): 3.71 ± 0.42 h
AUC(0-t) [3, 4]: 532 ± 87.8 ng·h/mL
half-life [3, 4]: 0.942 ± 0.078 h
bioavailability ([3]; po, intragastric 10 mg/kg vs injection 1 mg/kg, read-out: Bioavailability F(%)): 72.5 ± 13.7%
Cmax ([3]; po, intragastric administration 10 mg/kg, read-out: Blood concentration Cmax): 1790 ± 510 ng/mL
AUC(0-t) [3, 5]: 3860 ± 728 ng·h/mL
half-life [3, 5]: 1.54 ± 0.784 h
SMILES: COCC[C@@H](C(=O)Nc1ccc2nn(C)cc2c1)N1CC(=O)N(c2cc(Cl)ccc2-n2cc(Cl)nn2)CC1=O [Example 96, (S)-2-(4-(5-chloro-2-(4-chloro-1H-1,2,3-triazol-1-yl)phenyl)-2,5-dioxopiperazin-1-yl)-4-methoxy-N-(2-methyl-2H-indazol-5-yl)butanamide]
